# From article PMC12390684 (Viruses, 2025)
# Read-outs that look alike come from different tables or passages of the source.
# Assays:
# [1] = target: T1, IN-GCN2 interaction (6xHis-IN / GST-GCN2) (UniProt P04585+Q9P2K8); set-up: method as in earlier work; conditions: single dose 100 µM, previous data ref 26; cited from earlier work
# [2] = target: T2, GCN2 (Homo sapiens, UniProt Q9P2K8); assay: In vitro phosphorylation assay: GCN2 autophosphorylation; assay type: biochemical; conditions: GCN2 25 nM, IN 700 nM; compound 10 µM to 4.6 nM
# T2 sequence (Q9P2K8 192-1024): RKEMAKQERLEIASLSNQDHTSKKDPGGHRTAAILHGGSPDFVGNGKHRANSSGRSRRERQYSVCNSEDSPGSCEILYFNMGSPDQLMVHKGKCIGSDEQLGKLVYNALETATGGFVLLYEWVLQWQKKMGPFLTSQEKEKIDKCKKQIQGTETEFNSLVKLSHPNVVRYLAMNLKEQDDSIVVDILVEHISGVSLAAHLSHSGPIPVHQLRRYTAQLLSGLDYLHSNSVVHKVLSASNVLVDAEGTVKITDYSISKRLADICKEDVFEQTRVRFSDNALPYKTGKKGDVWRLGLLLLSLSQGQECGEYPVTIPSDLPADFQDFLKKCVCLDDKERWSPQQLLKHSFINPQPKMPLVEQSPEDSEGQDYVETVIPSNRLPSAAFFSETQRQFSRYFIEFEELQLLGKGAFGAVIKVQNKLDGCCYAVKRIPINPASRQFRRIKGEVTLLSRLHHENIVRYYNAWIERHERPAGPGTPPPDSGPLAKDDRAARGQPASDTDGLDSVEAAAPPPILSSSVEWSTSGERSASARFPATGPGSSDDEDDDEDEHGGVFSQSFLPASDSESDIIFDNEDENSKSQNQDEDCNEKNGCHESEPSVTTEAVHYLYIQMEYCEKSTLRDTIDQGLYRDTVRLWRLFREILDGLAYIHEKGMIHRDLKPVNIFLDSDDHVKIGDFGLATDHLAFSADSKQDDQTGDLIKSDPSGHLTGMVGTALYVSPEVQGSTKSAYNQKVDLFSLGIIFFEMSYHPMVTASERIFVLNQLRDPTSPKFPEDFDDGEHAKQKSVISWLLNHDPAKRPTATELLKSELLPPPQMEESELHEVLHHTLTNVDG
# [3] = target: T3, HIV-1 IN (Human immunodeficiency virus type 1 group M subtype B, UniProt P04585); assay: Strand transfer (ST) gel-based assay; assay type: biochemical; conditions: for apparent IC50, inhibition of ST activity, in words: 400 nM IN, 20 nM substrate, 1 h 37 °C
# [4] = target: T4, phosphorylation of IN by GCN2 (UniProt P04585+Q9P2K8); assay: In vitro phosphorylation assay: phosphorylation of IN by GCN2; assay type: biochemical, HIV-1 IN; human GCN2; conditions: GCN2 25 nM, IN 700 nM; compound 10 µM to 4.6 nM
# [5] = test system: HIV-1Laï; assay: microbe, parasite or virus in culture; assay type: cell-based; conditions: for EC50: 24 h infection, read-out: EC50
# [6] = target: T1, IN-GCN2 interaction (6xHis-IN / GST-GCN2); assay: biochemical; assay type: binding, HIV-1 IN; human GCN2; conditions: for IC50: IC50, inhibition of IN-GCN2 interaction; for IN-GCN2 interaction (%): screen, single dose 100 µM, single replicate, residual AlphaLISA signal normalized to DMSO control
# [7] = Cytotoxicity (CellTiter 96 AQueous); assay type: cell-based; conditions: human
# [8] = target: GST-GCN2, active truncated human GCN2 (192-1024) with an N-terminal GST tag (human) (UniProt Q9P2K8); assay: AlphaScreen or HTRF
# [9] = target: T4, phosphorylation of IN by GCN2; set-up: method as in earlier work; conditions: previous study ref 26; cited from earlier work
# [10] = target: T2, GCN2; set-up: method as in earlier work; conditions: previous study ref 26; cited from earlier work
# [11] = test system: P4 MAGI CCR5+ cells; assay: Cytotoxicity (CellTiter 96 AQueous); assay type: cell-based
# [12] = target: T3, HIV-1 IN; conditions: read-out: IC50, non-selective inhibition of IN activities; cited from earlier work
# [13] = Human immunodeficiency virus 1, MAGI, 24 h
# [14] = SAR study, fresh dilutions from powder, at least three independent experiments
# [15] = plated compounds of the screen, dose-response 100 µM to 46 nM (Figure 1B), n = 9
# [16] = P4 MAGI CCR5+ cells, 24 h, read-out: CC50
molecule,measurement,setting,value
CC(=O)[C@]1(O)Cc2c(O)c3c(c(O)c2[C@@H](O[C@H]2C[C@H](N)[C@H](O)[C@H](C)O2)C1)C(=O)c1ccccc1C3=O [NSC256439],inhibition of IN-GCN2 interaction,[1],around 70%
COc1cc2c(cc3c4c(cc5c(c42)OCO5)CCN3C)c(OC)c1OC [NSC785155],"effect on GCN2 autophosphorylation, in words",[2],limited impact
same,"inhibition of ST activity, in words",[3]; 111 µM to 51 nM,unable to fully inhibit ST even at 111 µM
same,"inhibition of IN phosphorylation, in words",[4],partially inhibited
same,EC50,[5]; [13],> 5 µM
same,IC50,[6]; [14],5.6 µM
same,IC50,[6]; [15],14.5 µM
same,IN-GCN2 interaction (%),[6],8.90%
same,CC50 at 24 h,[7]; [16],> 5 µM
Recombinant full-length HIV-1 integrase (6xHis-IN fusion protein) (enzyme),"AlphaLISA signal (DMSO control, plate 1)",[8],5610 Alpha counts
same,"AlphaLISA signal (DMSO control, plate 2)",[8],3900 Alpha counts
"CC1Oc2cc3c(-c4c(O)cc(O)c5c(O)c6c(cc45)OC(C)C(C)C6=O)c(O)cc(O)c3c(O)c2C(=O)C1C (centres unmarked) [NSC345647, chaetochromin]","effect on GCN2 autophosphorylation, in words",[2],inhibited GCN2 autophosphorylation
same,"apparent IC50, inhibition of ST activity, in words",[3],mid-nanomolar concentration range
same,"inhibition of IN phosphorylation, in words",[4],full inhibition
same,"effect on HIV replication, in words",[5],inactive
same,EC50,[5],> 5 µM
same,IC50,[6]; [15],5.2 µM
same,IN-GCN2 interaction (%),[6],6.36%
same,CC50 at 24 h,"[7]; 24 h, read-out: CC50",> 5 µM
"CCC1(O)CC(OC2CC(N(C)C)C(OC3CC(O)C(OC4CCC(=O)C(C)O4)C(C)O3)C(C)O2)c2c(cc3c(c2O)C(=O)c2c(O)ccc(O)c2C3=O)C1C(=O)OC (centres unmarked) [NSC18334, cinerubin A]","effect on GCN2 autophosphorylation, in words",[2],inhibited GCN2 autophosphorylation
same,"apparent IC50, inhibition of ST activity, in words",[3],low-micromolar
same,"inhibition of IN phosphorylation, in words",[4],full inhibition
same,EC50,[5]; [13],0.79 µM
same,IN-GCN2 interaction (%),[6],5.47%
same,CC50,"[7]; 24 h, read-out: CC50",> 5 µM
COc1cccc2c1C(=O)c1c(O)c3c(c(O)c1C2=O)C[C@@](O)(C(C)=O)C[C@@H]3O[C@H]1C[C@H](N)[C@H](O)[C@H](C)O1 [NSC82151],inhibition of IN-GCN2 interaction,[1],around 70%
same,IN-GCN2 interaction (%),[6],50.79%
"O=C1c2c(O)ccc(O)c2C(=O)c2c(NCCNCCO)ccc(NCCNCCO)c21 [NSC279836, mitoxantrone, reference compound]","apparent IC50, inhibition of IN phosphorylation",[9],low micromolar range
same,concentration up to which GCN2 autophosphorylation was not affected,[10],300 µM
same,IC50,[6]; [14],2.4 µM
same,CC50 at 24 h,[7],> 5 µM
COc1cc2c3c(c1O)-c1cc(N(Cc4ccccc4)Cc4ccccc4)ccc1CC3N(C)CC2 (centres unmarked) [NSC785176],CC50,[11]; 24 h,> 5 µM
"CC(=O)OC(C)C1C2=C(C(=O)CC1(C)O)C(=O)c1c(ccc(-c3ccc4c(c3O)C(=O)C3=C(C4=O)C(C(C)OC(C)=O)C(C)(O)CC3=O)c1O)C2=O (centres unmarked) [NSC248605, Julimycin B2]",IC50,[12],140 µM
same,"effect on HIV replication, in words",[5],anti-
same,EC50,"[5]; Human immunodeficiency virus 1, MAGI",0.167 µM
same,IC50,[6]; [15],30 µM
same,IN-GCN2 interaction (%),[6],6.97%
same,CC50 at 24 h,[7]; [16],> 5 µM
COc1cccc2c1C(=O)c1c(O)c3c(c(O)c1C2=O)CC(O)(C(=O)CO)CC3OC1CC(N2CCOCC2C#N)C(O)C(C)O1 (centres unmarked) [Compound 1p],IC50,[6]; [14],61.1 µM
same,"lowest dose used, at which compound was still toxic",[11]; human,about 2 nM
same,CC50,"[7]; 24 h, read-out: CC50",< 0.002 µM
